The results in this text go back to patent US8183239B2, “Substituted piperazines and piperidines as modulators of the neuropeptide Y2 receptor” (Janssen Pharmaceutica NV, priority 2005, dated 2012).

A word on the IC50: it is the concentration that gives 50% inhibition.

The target in one experiment is T1, Y2 receptors (Homo sapiens, UniProt P49146).
T1 construct: endogenous in cells; host or cells: KAN-Ts cells (membranes)
T1 sequence (P49146 1-381): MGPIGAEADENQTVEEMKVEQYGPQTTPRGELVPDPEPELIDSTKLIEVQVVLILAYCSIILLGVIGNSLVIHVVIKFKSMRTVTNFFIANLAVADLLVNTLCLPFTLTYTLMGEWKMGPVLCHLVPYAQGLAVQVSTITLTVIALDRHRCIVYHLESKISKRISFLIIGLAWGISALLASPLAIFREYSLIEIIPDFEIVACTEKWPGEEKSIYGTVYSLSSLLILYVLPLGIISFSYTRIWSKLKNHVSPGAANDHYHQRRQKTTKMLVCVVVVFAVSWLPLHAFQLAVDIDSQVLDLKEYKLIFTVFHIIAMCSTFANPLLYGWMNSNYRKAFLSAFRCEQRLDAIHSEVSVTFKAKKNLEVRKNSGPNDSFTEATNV
The experiment in a line: Radioligand binding assay ([125I]PYY, KAN-Ts cell membranes). The following applies: IC50 (nM), Table 1, [125I]PYY 80 pM, average of results. As for the experimental part: Radioligand Binding Assay
KAN-Ts endogenously expressing Y2 receptors were used for the radioligand binding assay. Cells were grown to confluence on 150 cm^2 tissue culture plates, washed with phosphate-buffered saline (PBS), and scraped into 50 mL tubes. After centrifugation, the supernatant was aspirated, and the pellets frozen and stored at −80° C. Thawed pellets were homogenized with a polytron tissue grinder for 15 sec in 20 mM Tris-HCl, 5 mM EDTA. The homogenate was centrifuged at 800×g for 5 min and the collected supernatant was recentrifuged at 25000×g for 25 min. The resulting pellet was resuspended in binding buffer (20 mM HEPES, 120 mM NaCl, 0.22 mM KH2PO4, 1.3 mM CaCl2, 0.8 mM MgSO4). Membranes were incubated with [^125I]PYY (80 pM) in the presence or absence of test compound for 1 h at rt. The reaction was stopped by filtration through GF/C filter plates pre-soaked in 0.3% polyethylenimine and subsequently washed with Tris 50 mM, 5 mM EDTA buffer. Plates were dried for 1 h in a 55° C. oven, scintillation fluid was added and the radioactivity was counted in a Packard TopCount. Specific binding to the NPY receptor subtypes was determined by radioactivity that was bound in the presence of […]. Each binding experiment was repeated three to eight times, each in duplicate. IC50 values (i.e. concentration of unlabelled peptide or antagonist required to compete for 50% of specific binding to the radioligand) were calculated using the GraphPad Prism software (GraphPad Software Inc., San Diego Calif.) with a fit to a sigmoidal dose response curve. Data for compounds tested are presented in Tables 1 and 2 as an average of results obtained.
Turning to `CCC(CC)C(=O)N(c1ccccc1)C1CCN(c2ccc(NC(=O)Nc3c(C)noc3C)cc2F)CC1` [Example 32, N-(1-{4-[3-(3,5-Dimethyl-isoxazol-4-yl)-ureido]-2-fluoro-phenyl}-piperidin-4-yl)-2-ethyl-N-phenyl-butyramide], the IC50 was found to be 180 nM.

`CCC(CC)C(=O)Nc1ccc(N2CCC(N(C(=O)C(CC)CC)c3ccccc3)CC2)c(F)c1` [Example 33, 2-Ethyl-N-{1-[4-(2-ethyl-butyrylamino)-2-fluoro-phenyl]-piperidin-4-yl}-N-phenyl-butyramide] had an IC50 of 180 nM.

`CCC(CC)C(=O)Nc1ccc(N2CCN(C(C(=O)OC)c3cccc(F)c3)CC2)c(F)c1` (centres unmarked) [Example 34, {4-[4-(2-Ethyl-butyrylamino)-2-fluoro-phenyl]-piperazin-1-yl}-(3-fluoro-phenyl)-acetic acid methyl ester] gave an IC50 of 40 nM.

Staying with this experiment, now noted: Table 1, [125I]PYY 80 pM, average of results, read-out: IC50.
Turning to `CCNC(=O)C(c1ccccc1)N1CCN(c2ccc(NC(=O)NCc3ccc(F)cc3)cc2F)CC1` (centres unmarked) [Example 26, N-Ethyl-2-(4-{2-fluoro-4-[3-(4-fluoro-benzyl)-ureido]-phenyl}-piperazin-1-yl)-2-phenyl-acetamide], the IC50 worked out at 2000 nM.

As to `CCNC(=O)C(c1ccccc1)N1CCN(c2ccc(NC(=O)N[C@@H](C)c3ccc(F)cc3)cc2F)CC1` (stereo partly drawn) [Example 28, N-Ethyl-2-[4-(2-fluoro-4-{3-[(S)-1-(4-fluoro-phenyl)-ethyl]-ureido}-phenyl)-piperazin-1-yl]-2-phenyl-acetamide], the IC50 worked out at 2900 nM.

In the case of `CCN(CC)C(=O)C(c1ccccc1)N1CCN(c2ccc(NC(=O)[C@H]3CCOC3)cc2F)CC1` (stereo partly drawn) [Example 29, (S)-Tetrahydro-furan-3-carboxylic acid {4-[4-(diethylcarbamoyl-phenyl-methyl)-piperazin-1-yl]-3-fluoro-phenyl}-amide], the IC50 is 65 nM.

In the case of `CCN(CC)C(=O)C(c1ccccc1)N1CCN(c2ccc(N(CC)C(=O)N(CC)c3c(C)noc3C)cc2F)CC1` (centres unmarked) [Example 30, 2-(4-{4-[3-(3,5-Dimethyl-isoxazol-4-yl)-1,3-diethyl-ureido]-2-fluoro-phenyl}-piperazin-1-yl)-N,N-diethyl-2-phenyl-acetamide], the IC50 was 570 nM.

For the molecule `CCN(CC)C(=O)C(c1ccccc1)N1CCN(c2ccc(C(=O)NCc3c(C)noc3C)cc2F)CC1` (centres unmarked) [Example 31, 4-[4-(Diethylcarbamoyl-phenyl-methyl)-piperazin-1-yl]-N-(3,5-dimethyl-isoxazol-4-ylmethyl)-3-fluoro-benzamide], the IC50 came out at 24 nM.

In the case of `CCC(CC)C(=O)Nc1ccc(N2CCN(C(C(=O)N(CC)CC)c3cccc(F)c3)CC2)c(F)c1` (centres unmarked) [Example 35, N-(4-{4-[Diethylcarbamoyl-(3-fluoro-phenyl)-methyl]-piperazin-1-yl}-3-fluoro-phenyl)-2-ethyl-butyramide], the IC50 stood at 33 nM.

In the case of `CCC(CC)C(=O)Nc1ccc(N2CCN(C(C(=O)OC)c3ccc(C#N)cc3)CC2)c(F)c1` (centres unmarked) [Example 36, (4-Cyano-phenyl)-{4-[4-(2-ethyl-butyrylamino)-2-fluoro-phenyl]-piperazin-1-yl}-acetic acid methyl ester], the IC50 stood at 210 nM.

Turning to `CCC(CC)C(=O)Nc1ccc(N2CCN(C(C(=O)OC)c3cccc(Cl)c3)CC2)c(F)c1` (centres unmarked) [Example 37, (3-Chloro-phenyl)-{4-[4-(2-ethyl-butyrylamino)-2-fluoro-phenyl]-piperazin-1-yl}-acetic acid methyl ester], the IC50 is 56 nM.

With `CCC(CC)C(=O)Nc1ccc(N2CCN(C(C(=O)OC)c3cccc(F)c3F)CC2)c(F)c1` (centres unmarked) [Example 38, (2,3-Difluoro-phenyl)-{4-[4-(2-ethyl-butyrylamino)-2-fluoro-phenyl]-piperazin-1-yl}-acetic acid methyl ester], the IC50 came to 440 nM.

Consider `COC(=O)C(c1ccccc1)N1CCN(c2ccc(NC(=O)c3ccccc3C)cc2Cl)CC1` (centres unmarked) [Example 39, {4-[2-Chloro-4-(2-methyl-benzoylamino)-phenyl]-piperazin-1-yl}-phenyl-acetic acid methyl ester], for which the IC50 came out at 800 nM.

`CCC(CC)C(=O)Nc1cc(F)c(N2CCN(C(C(=O)OC)c3ccccc3)CC2)c(F)c1` (centres unmarked) [Example 40, {4-[4-(2-Ethyl-butyrylamino)-2,6-difluoro-phenyl]-piperazin-1-yl}-phenyl-acetic acid methyl ester]: the IC50 turned out to be 110 nM.

For `CCC(CC)C(=O)Nc1cc(Cl)c(N2CCN(C(C(=O)OC)c3ccccc3)CC2)c(Cl)c1` (centres unmarked) [Example 41, {4-[2,6-Dichloro-4-(2-ethyl-butyrylamino)-phenyl]-piperazin-1-yl}-phenyl-acetic acid methyl ester], the IC50 amounted to 77 nM.

Consider `CCNC(=O)C(c1ccccc1)N1CCN(c2ccc(NC(=O)C(CC)CC)c(F)c2)CC1` (centres unmarked) [Example 42, 2-Ethyl-N-{4-[4-(ethylcarbamoyl-phenyl-methyl)-piperazin-1-yl]-2-fluoro-phenyl}-butyramide], for which the IC50 came out at 4830 nM.

On to `CCNC(=O)C(c1ccccc1)C1CCN(c2ccc(NC(=O)C(CC)CC)cc2C#N)CC1` (centres unmarked) [Example 43, N-{3-Cyano-4-[4-(ethylcarbamoyl-phenyl-methyl)-piperidin-1-yl]-phenyl}-2-ethyl-butyramide], for which the IC50 turned out to be 14 nM.

As to `CCC(CC)C(=O)Nc1ccc(N2CCN(C(C(=O)OC)c3ccccc3)CC2)c(F)c1` (centres unmarked) [Example 44, {4-[4-(2-Ethyl-butyrylamino)-2-fluoro-phenyl]-piperazin-1-yl}-phenyl-acetic acid methyl ester], the IC50 came to 131 nM.

`COC(=O)C(c1ccccc1)N1CCN(c2ccc(NC(=O)C3Cc4ccccc43)cc2)CC1` (centres unmarked) [Example 45, (4-{4-[(Bicyclo[4.2.0]octa-1 (6),2,4-triene-7-carbonyl)-amino]-phenyl}-piperazin-1-yl)-phenyl-acetic acid methyl ester]: the IC50 was 4000 nM.

For `COC(=O)C(c1ccccc1)N1CCN(c2ccc(NC(=O)c3ccccc3I)cc2)CC1` (centres unmarked) [Example 46, {4-[4-(2-Iodo-benzoylamino)-phenyl]-piperazin-1-yl}-phenyl-acetic acid methyl ester], the IC50 stood at 6000 nM.

Consider `COC(=O)C(c1ccccc1)N1CCN(c2ccc(NC(=O)c3ccccc3)cc2)CC1` (centres unmarked) [Example 47, [4-(4-Benzoylamino-phenyl)-piperazin-1-yl]-phenyl-acetic acid methyl ester], for which the IC50 stood at 10000 nM.

Turning to `COC(=O)C(c1ccccc1)N1CCN(c2ccc(NC(=O)c3ccccc3C3CCCCC3)cc2)CC1` (centres unmarked) [Example 49, {4-[4-(2-Cyclohexyl-benzoylamino)-phenyl]-piperazin-1-yl}-phenyl-acetic acid methyl ester], the IC50 was 1300 nM.

Regarding `COC(=O)C(c1ccccc1)N1CCN(c2ccc(NC(=O)c3ccccc3C)cc2)CC1` (centres unmarked) [Example 50, {4-[4-(2-Methyl-benzoylamino)-phenyl]-piperazin-1-yl}-phenyl-acetic acid methyl ester], the IC50 amounted to 1800 nM.

Consider `CCc1ccccc1C(=O)Nc1ccc(N2CCN(C(C(=O)OC)c3ccccc3)CC2)cc1` (centres unmarked) [Example 51, {4-[4-(2-Ethyl-benzoylamino)-phenyl]-piperazin-1-yl}-phenyl-acetic acid methyl ester], for which the IC50 is 1850 nM.

`COC(=O)C(c1ccccc1)N1CCN(c2ccc(NC(=O)c3ccccc3C(C)C)cc2)CC1` (centres unmarked) [Example 52, {4-[4-(2-Isopropyl-benzoylamino)-phenyl]-piperazin-1-yl}-phenyl-acetic acid methyl ester]: the IC50 was 1400 nM.

As for `COC(=O)C(c1ccccc1)N1CCN(c2ccc(NC(=O)c3ccccc3Cl)cc2)CC1` (centres unmarked) [Example 53, {4-[4-(2-Chloro-benzoylamino)-phenyl]-piperazin-1-yl}-phenyl-acetic acid methyl ester], the IC50 was 12600 nM.

Consider `COC(=O)C(c1ccccc1)N1CCN(c2ccc(NC(=O)c3ccccc3OC)cc2)CC1` (centres unmarked) [Example 56, {4-[4-(2-Methoxy-benzoylamino)-phenyl]-piperazin-1-yl}-phenyl-acetic acid methyl ester], for which the IC50 came to 4000 nM.

Consider `CNc1ccccc1C(=O)Nc1ccc(N2CCN(C(C(=O)OC)c3ccccc3)CC2)cc1` (centres unmarked) [Example 58, {4-[4-(2-Methylamino-benzoylamino)-phenyl]-piperazin-1-yl}-phenyl-acetic acid methyl ester], for which the IC50 came to 3000 nM.

With `COC(=O)C(c1ccccc1)N1CCN(c2ccc(NC(=O)C3CCCC3)cc2)CC1` (centres unmarked) [Example 59, {4-[4-(Cyclopentanecarbonyl-amino)-phenyl]-piperazin-1-yl}-phenyl-acetic acid methyl ester], the IC50 turned out to be 13100 nM.
